Source: the NIST ThermoML archive (doi:10.1016/j.jct.2015.05.006)

Columns and labels:
[1] = xn = mol fraction of the nth substance listed; settings: Liquid, Vibrating tube method
[2] = relative permittivity at various frequencies (dimensionless); xn = mol fraction of the nth substance listed; settings: Liquid, Frequency=1 MHz, Parallel plate capacitor

COCCOC [1,2-dimethoxyethane] + CCCCCC
95.2 kPa
Settings	mass density, [1] [kg/m3]	relative permittivity, [2]
288.15 K, x2 = 0	872.06	7.41
288.15 K, x2 = 0.0501	857.87	–
288.15 K, x2 = 0.0513	–	6.89
288.15 K, x2 = 0.0904	–	6.46
288.15 K, x2 = 0.1049	842.87	–
288.15 K, x2 = 0.1999	–	5.58
288.15 K, x2 = 0.2992	–	4.85
288.15 K, x2 = 0.2999	794.19	–
288.15 K, x2 = 0.4004	–	4.19
288.15 K, x2 = 0.4059	770.33	–
288.15 K, x2 = 0.4961	751.31	–
288.15 K, x2 = 0.4983	–	3.65
288.15 K, x2 = 0.6001	–	3.17
288.15 K, x2 = 0.6054	729.6	–
288.15 K, x2 = 0.694	713.16	–
288.15 K, x2 = 0.7004	–	2.77
288.15 K, x2 = 0.7916	696.41	–
288.15 K, x2 = 0.8057	–	2.41
288.15 K, x2 = 0.9022	–	2.14
288.15 K, x2 = 0.9035	678.43	–
288.15 K, x2 = 0.9509	–	2.02
288.15 K, x2 = 0.9533	670.87	–
298.15 K, x2 = 0	861.17	7.07
298.15 K, x2 = 0.0459	–	6.61
298.15 K, x2 = 0.0495	846.99	–
298.15 K, x2 = 0.0955	–	6.19
298.15 K, x2 = 0.1011	833.13	–
298.15 K, x2 = 0.2009	807.1	–
298.15 K, x2 = 0.2013	–	5.36
298.15 K, x2 = 0.2992	–	4.67
298.15 K, x2 = 0.3031	782.87	–
298.15 K, x2 = 0.398	–	4.07
298.15 K, x2 = 0.4027	760.92	–
298.15 K, x2 = 0.4977	740.86	–
298.15 K, x2 = 0.4984	–	3.53
298.15 K, x2 = 0.5959	721.71	–
298.15 K, x2 = 0.6014	–	3.08
298.15 K, x2 = 0.6972	703.06	–
298.15 K, x2 = 0.7019	–	2.7
298.15 K, x2 = 0.8016	–	2.38
298.15 K, x2 = 0.8051	684.57	–
298.15 K, x2 = 0.8985	670	–
298.15 K, x2 = 0.9031	–	2.11
298.15 K, x2 = 0.9477	–	2.01
308.15 K, x2 = 0	850.13	6.75
308.15 K, x2 = 0.0457	837.34	–
308.15 K, x2 = 0.0494	–	6.3
308.15 K, x2 = 0.0927	824.63	–
308.15 K, x2 = 0.0967	–	5.9
308.15 K, x2 = 0.1938	–	5.18
308.15 K, x2 = 0.2001	797.09	–
308.15 K, x2 = 0.2984	773.76	–
308.15 K, x2 = 0.3011	–	4.47
308.15 K, x2 = 0.3939	752.46	–
308.15 K, x2 = 0.4025	–	3.91
308.15 K, x2 = 0.4989	–	3.44
308.15 K, x2 = 0.5082	728.75	–
308.15 K, x2 = 0.5955	711.88	–
308.15 K, x2 = 0.6018	–	3
308.15 K, x2 = 0.6927	694.24	–
308.15 K, x2 = 0.699	–	2.66
308.15 K, x2 = 0.7982	–	2.36
308.15 K, x2 = 0.8036	675.37	–
308.15 K, x2 = 0.901	–	2.09
308.15 K, x2 = 0.9023	660.16	–
308.15 K, x2 = 0.9506	–	1.99
308.15 K, x2 = 0.9509	653.01	–

COCCOC [1,2-dimethoxyethane] + CCCCCCCC
97.1 kPa
Settings	mass density, [1] [kg/m3]	relative permittivity, [2]
288.15 K, x2 = 0	872.06	7.41
288.15 K, x2 = 0.0493	857.73	–
288.15 K, x2 = 0.0502	–	6.79
288.15 K, x2 = 0.1011	843.79	–
288.15 K, x2 = 0.1035	–	6.21
288.15 K, x2 = 0.2005	–	5.31
288.15 K, x2 = 0.2032	819.39	–
288.15 K, x2 = 0.3015	–	4.54
288.15 K, x2 = 0.3036	798.48	–
288.15 K, x2 = 0.4019	780.49	–
288.15 K, x2 = 0.4024	–	3.92
288.15 K, x2 = 0.4964	–	3.45
288.15 K, x2 = 0.4992	764.69	–
288.15 K, x2 = 0.6022	–	3.01
288.15 K, x2 = 0.6046	749.52	–
288.15 K, x2 = 0.7031	–	2.67
288.15 K, x2 = 0.707	736.47	–
288.15 K, x2 = 0.8035	–	2.38
288.15 K, x2 = 0.8044	725.4	–
288.15 K, x2 = 0.9038	–	2.15
288.15 K, x2 = 0.9082	714.88	–
288.15 K, x2 = 0.9495	711.04	–
288.15 K, x2 = 0.9511	–	2.06
298.15 K, x2 = 0	861.17	7.07
298.15 K, x2 = 0.0487	–	6.5
298.15 K, x2 = 0.0493	847.03	–
298.15 K, x2 = 0.1004	–	5.97
298.15 K, x2 = 0.1011	833.26	–
298.15 K, x2 = 0.2032	809.21	–
298.15 K, x2 = 0.204	–	5.07
298.15 K, x2 = 0.3008	–	4.39
298.15 K, x2 = 0.3036	788.62	–
298.15 K, x2 = 0.4019	770.94	–
298.15 K, x2 = 0.4064	–	3.78
298.15 K, x2 = 0.4992	755.41	–
298.15 K, x2 = 0.5043	–	3.32
298.15 K, x2 = 0.6046	740.56	2.93
298.15 K, x2 = 0.7038	–	2.62
298.15 K, x2 = 0.707	727.79	–
298.15 K, x2 = 0.8039	–	2.35
298.15 K, x2 = 0.8044	716.95	–
298.15 K, x2 = 0.9008	–	2.14
298.15 K, x2 = 0.9082	706.67	–
298.15 K, x2 = 0.9495	702.91	–
298.15 K, x2 = 0.9516	–	2.04
308.15 K, x2 = 0	850.13	6.75
308.15 K, x2 = 0.0493	836.17	–
308.15 K, x2 = 0.0513	–	6.2
308.15 K, x2 = 0.1011	822.58	–
308.15 K, x2 = 0.1017	–	5.71
308.15 K, x2 = 0.203	–	4.88
308.15 K, x2 = 0.2032	798.9	–
308.15 K, x2 = 0.3025	–	4.23
308.15 K, x2 = 0.3036	778.63	–
308.15 K, x2 = 0.4019	761.25	–
308.15 K, x2 = 0.4021	–	3.69
308.15 K, x2 = 0.4992	746.01	–
308.15 K, x2 = 0.5006	–	3.25
308.15 K, x2 = 0.6029	–	2.87
308.15 K, x2 = 0.6046	731.48	–
308.15 K, x2 = 0.7028	–	2.57
308.15 K, x2 = 0.707	718.98	–
308.15 K, x2 = 0.802	–	2.32
308.15 K, x2 = 0.8044	708.4	–
308.15 K, x2 = 0.9027	–	2.11
308.15 K, x2 = 0.9082	698.35	–
308.15 K, x2 = 0.9493	–	2.03
308.15 K, x2 = 0.9495	694.71	–
